The values that follow come from PubChem BioAssay (NCI).

Test systems include A498 renal; CAKI-1 renal; COLO 205 colon; HCT-116 colon; HL-60(TB) leukemia; HOP-92 NSCLC; NCI-H226 lung; OVCAR-5 ovarian; SF-295 CNS; SK-MEL-28 melanoma.
Assay in all cases: growth of human tumour cells (NCI), 48 h

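Growth conditions: 96-well plates. Treatment: test compound, 48 hours, 5 concentrations. Analysis: linear interpolation between bracketing concentrations; unreached endpoints set to highest concentration. At the GI50, growth is halved. TGI: total growth inhibition.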

Take `O=C(CN1CCOCC1)Nc1ccc(Cn2nnc3c2C(=O)c2nnn(Cc4ccc(NC(=O)CN5CCOCC5)cc4)c2C3=O)cc1`: the GI50 in the assay on A498 renal is 1.97 µM; in the assay on CAKI-1 renal, > 45 µM; with COLO 205 colon, 0.199 µM; with HCT-116 colon, 0.316 µM; with HL-60(TB) leukemia, 0.204 µM; with HOP-92 NSCLC it was 0.822 µM. Further, the GI50 in the assay with NCI-H226 lung was 1.54 µM; in the assay with OVCAR-5 ovarian, 1.94 µM; in the assay on SF-295 CNS, 1.65 µM; in the assay on SK-MEL-28 melanoma, 0.696 µM. Also, the TGI in the assay with A498 renal is 4.39 µM; with CAKI-1 renal, > 100 µM; in the assay on COLO 205 colon, 0.463 µM; in the assay on HCT-116 colon, 1.16 µM; in the assay with HL-60(TB) leukemia it was 0.61 µM; in the assay on HOP-92 NSCLC it was 2.34 µM. The TGI stood at 3.93 µM in the assay on NCI-H226 lung, 4.29 µM with OVCAR-5 ovarian, 3.68 µM in the assay on SF-295 CNS and 2.62 µM in the assay with SK-MEL-28 melanoma.
Take `COc1ccc(/C(=C2\O[C@@H]([C@H]3COC(C)(C)O3)[C@H]3OC(C)(C)O[C@@H]23)c2cc(OC)c(OC)c(OC)c2)cc1O`: the GI50 was 35.7 µM with A498 renal; 37.3 µM with CAKI-1 renal; 17.4 µM with COLO 205 colon; 4.14 µM in the assay on HCT-116 colon; 3.39 µM in the assay on HL-60(TB) leukemia; 5.45 µM in the assay on HOP-92 NSCLC. Also, the GI50 with NCI-H226 lung was 25.9 µM; in the assay on OVCAR-5 ovarian, > 100 µM; in the assay on SF-295 CNS, 7 µM; in the assay on SK-MEL-28 melanoma it was 5.45 µM. Further, the TGI was > 100 µM with A498 renal; > 100 µM with CAKI-1 renal; > 100 µM in the assay with COLO 205 colon; > 100 µM in the assay with HCT-116 colon; 23.3 µM in the assay on HL-60(TB) leukemia; 31.8 µM in the assay on HOP-92 NSCLC. Also, the TGI is > 100 µM in the assay with NCI-H226 lung, > 100 µM in the assay on OVCAR-5 ovarian, 37.3 µM in the assay with SF-295 CNS and > 100 µM with SK-MEL-28 melanoma.
Regarding `CCCCC(=O)OCC1OC(n2cnc3c(=S)nc[nH]c32)C(OC(=O)CCCC)C1OC(=O)CCCC` (centres undefined), the GI50 is 9.54 µM in the assay with A498 renal; 2.26 µM in the assay on CAKI-1 renal; 1.37 µM in the assay on COLO 205 colon; 2.15 µM in the assay with HCT-116 colon; 3.55 µM in the assay with HL-60(TB) leukemia; 1 µM in the assay with HOP-92 NSCLC. Further, the GI50 in the assay with OVCAR-5 ovarian is 3.65 µM; in the assay on SF-295 CNS, 1.54 µM; with SK-MEL-28 melanoma it was 57.4 µM. Also, the TGI with A498 renal was > 96.1 µM; in the assay on CAKI-1 renal it was > 100 µM; in the assay on COLO 205 colon, 5.18 µM; with HCT-116 colon, > 100 µM; with HL-60(TB) leukemia, > 100 µM; in the assay with HOP-92 NSCLC, > 84.5 µM. Further, the TGI in the assay with NCI-H226 lung is > 100 µM; in the assay on OVCAR-5 ovarian it was > 100 µM; with SF-295 CNS, > 26.4 µM; in the assay with SK-MEL-28 melanoma, > 100 µM.
On to `O=c1oc2ccc(F)cc2c(=O)n1-c1ccc(F)cc1F`, for which the GI50 was 1.62 µM with A498 renal; 1.98 µM in the assay on CAKI-1 renal; 3.56 µM in the assay with COLO 205 colon; 2.86 µM in the assay on HCT-116 colon; 2.68 µM with HL-60(TB) leukemia; 1.6 µM in the assay on HOP-92 NSCLC. Moreover, the GI50 in the assay on NCI-H226 lung is 2.82 µM; with OVCAR-5 ovarian it was 3.46 µM; in the assay on SF-295 CNS it was 2.33 µM; in the assay on SK-MEL-28 melanoma, 2.79 µM. Also, the TGI in the assay on A498 renal is 3.91 µM; in the assay with CAKI-1 renal it was 6.4 µM; in the assay with COLO 205 colon it was 12.5 µM; in the assay on HCT-116 colon, 9.6 µM; with HL-60(TB) leukemia it was 7.81 µM; in the assay on HOP-92 NSCLC, 4.68 µM. Besides, the TGI was 72.9 µM with NCI-H226 lung, > 100 µM in the assay with OVCAR-5 ovarian, 5.58 µM with SF-295 CNS and 11.7 µM in the assay on SK-MEL-28 melanoma.
With `CC1CCC2(C(=O)O)CCC3(C)C(=CCC4C5(C)CC(O)C(O)C(C)(CO)C5C(O)CC43C)C2C1C` (centres undefined), the TGI is 48 µM in the assay with A498 renal; > 100 µM in the assay with CAKI-1 renal; > 100 µM in the assay on COLO 205 colon; > 24.3 µM with HCT-116 colon; 47.1 µM in the assay on HL-60(TB) leukemia; 46.3 µM with HOP-92 NSCLC. The TGI in the assay on NCI-H226 lung was > 100 µM; in the assay on OVCAR-5 ovarian, > 100 µM; in the assay on SF-295 CNS, > 100 µM; with SK-MEL-28 melanoma it was 69 µM.
On to `Cn1c(N2NC(=O)C(N=Nc3ccc(S(N)(=O)=O)cc3)C2=O)nc(-c2ccco2)c(C#N)c1=O` (centres undefined), for which the GI50 in the assay with A498 renal was > 50 µM; with CAKI-1 renal, 11.9 µM; with COLO 205 colon, 3.18 µM; in the assay with HCT-116 colon it was 15.4 µM; with HL-60(TB) leukemia it was 5.04 µM; with HOP-92 NSCLC, 25.5 µM. The GI50 with NCI-H226 lung was > 50 µM; in the assay on OVCAR-5 ovarian it was > 50 µM; with SF-295 CNS it was > 50 µM; in the assay on SK-MEL-28 melanoma, 11.7 µM. The TGI is > 50 µM in the assay with A498 renal; > 50 µM in the assay on CAKI-1 renal; 11.8 µM with COLO 205 colon; > 50 µM in the assay on HCT-116 colon; 18.4 µM in the assay with HL-60(TB) leukemia; > 50 µM with HOP-92 NSCLC. The TGI is > 50 µM in the assay on NCI-H226 lung, > 50 µM with OVCAR-5 ovarian, > 50 µM in the assay with SF-295 CNS and 45.5 µM in the assay with SK-MEL-28 melanoma.
As for `COc1ccc2[nH]c3c(C)c4c(c(C)c3c2c1)CN(C)CC4`, the TGI came out at 32.2 µM with A498 renal; 34.1 µM with CAKI-1 renal; 31.2 µM in the assay with COLO 205 colon; 11.8 µM in the assay on HCT-116 colon; 4.65 µM in the assay on HL-60(TB) leukemia; 32.2 µM in the assay on HOP-92 NSCLC. Further, the TGI in the assay on NCI-H226 lung is 30.8 µM; with OVCAR-5 ovarian it was 54.2 µM; in the assay with SF-295 CNS, 32.9 µM; with SK-MEL-28 melanoma, 27.5 µM.
`Cc1nn(CN2CCN(C)CC2)c(=S)n1/N=C/c1cccc2ccccc12`: the GI50 in the assay with A498 renal was 16.7 µM; in the assay with CAKI-1 renal, 28.2 µM; in the assay with COLO 205 colon, 10.8 µM; in the assay on HCT-116 colon it was 18 µM; with HL-60(TB) leukemia it was 16.7 µM; with HOP-92 NSCLC it was 19.9 µM. Also, the GI50 was 17.1 µM in the assay on NCI-H226 lung, 19.6 µM in the assay on OVCAR-5 ovarian, 24.9 µM with SF-295 CNS and 17 µM in the assay with SK-MEL-28 melanoma. Also, the TGI was determined as 34.7 µM with A498 renal; 73.5 µM in the assay on CAKI-1 renal; 26.6 µM in the assay on COLO 205 colon; 35.6 µM with HCT-116 colon; 37 µM in the assay on HL-60(TB) leukemia; 46.5 µM in the assay on HOP-92 NSCLC. Further, the TGI stood at 34.9 µM with NCI-H226 lung, 40.4 µM with OVCAR-5 ovarian, 59.5 µM in the assay on SF-295 CNS and 34.3 µM in the assay with SK-MEL-28 melanoma.
